Data on four compounds can be found in patent US20220411422A1, “ERBB RECEPTOR INHIBITORS” (Dizal (Jiangsu) Pharmaceutical Co., Ltd., priority 2018, published 2022).

Structures are written as SMILES. A value given as a limit tells only on which side of the number the result lay.

Data set [1] can be described thus: Blood brain barrier penetration assay in rats (short oral absorption model with blood, plasma and brain binding). The class given is in vivo. Conditions: male, Han Wistar, Table 5, rat. How it is done:
In vitro blood, plasma and brain binding assay was carried out with equilibrium dialysis device. […] At the end of incubation, a 50 μL aliquot from the receiver side and a 5 μL from the donor chamber were taken. The 5 μL sample was further diluted with 45 μL of blank blood, plasma or brain homogenate. Paired samples were matrix-matched with either buffer or blank matrix, and mixed for 2 min, and then precipitated with 150 μL cold acetonitrile with 100 ng/mL tolbutamide as internal standard. After centrifuging at 4000 rpm for 20 min, supernatant was diluted with 0.1% formic acid aqueous solution and analyzed for LC/MS/MS (API 4000, Applied Biosystems, Foster City). […] D is dilution factor. […] A Short oral absorption (SOA) model is an in-vivo screening model to identify brain penetration of a compound. Six male Han Wistar rats purchased from Beijing Vital River were orally dosed with the compound. […] Brain tissue was harvested and homogenized in 3× volume of 100 mM phosphate buffered saline (pH7.4). All samples were stored at ˜−70° C. prior to LC/MS/MS analysis. Standards were prepared by spiking blank plasma, blood, brain homogenate and artificial CSF. […] After 2 min vortex and 5 min centrifugation at 14,000 rpm, supernatant was analyzed by LC/MS/MS (API 4000, Applied Biosystems, Foster City). Two sets of standard curves were run at the beginning and end of each batch from blood sample analysis. For brain and CSF samples, one standard curve was analyzed along with test samples. Total brain levels, expressed as brain/blood ratio (Kp,brain) were measured by AUC(brain)/AUC(blood or plasma) in rodents after oral administration. Similarly, CSF levels represented by a ratio of CSF/blood exposure (Kp,CSF) were determined by AUC(CSF)/AUC(blood or plasma). Free fraction of test compound in biological matrix was determined by in vitro blood and brain binding assay. Kp,uu brain and Kp,uu CSF was calculated by the following equation: Kp,uu brain=AUC(brain)/AUC(blood or plasma)×(fubrain/fublood/plasma) and […] Moreover, the ability of Compounds 6 and 16 to cross BBB was assessed in both rat and monkey by measuring unbound brain-to-plasma partition ratio (Kpuu,brain) and unbound CSF-to-plasma partition ratio (Kpuu,CSF) with the method mentioned above.

Data set [2] concerns Human Pgp/BCRP transporter. The data set is described as follows: Human Pgp/BCRP transporter substrate assessment. The class given is in vitro ADME.
For the next data set, the target named is T1, pHER2 (Homo sapiens, UniProt P04626).
T1 construct: pHER2 in cells expressing HER2; endogenous in cells; host or cells: BT474c1
Description: pHER2 cellular activity in BT474c1 cell line. The class given is cell-based. The following applies: BT474c1 cell line. How it is done:
A compound's activity of selective inhibition for HER2 wild type amplification can be evaluated with BT474 cell line (ATCC® HTB-20™). The cell line expressed phosphorylated HER2 protein and its proliferation depended on the amplified gene, which could be used for in vitro PD and anti-proliferation assays.
The compounds' inhibition of target modulation were determined as follows: BT474 cells were sorted in 96 well plates (20000 cells/well) with the DMEM medium containing 10% FBS overnight and then treated with tested compounds at a series of concentrations (3 μM, 0.3 μM, 0.1 μM, 0.03 μM, 0.01 μM, 0.003 μM, 0.001 μM, 0.0001 μM). The plates were incubated for 4 h at 37° C. with 5% CO2 and then the HER2 (Y1248) phosphorylation level of cells in each well were measured with MSD Kit (Phospho-ErbB2 (Tyr1248) Assay Whole Cell Lysate Kit: Cat #K151CLD-3). The assay is a electrochemiluminescent method (MESO SCALE DISCOVERY) for determining both phosphorylated and total HER2 of cells with an MSD SECTOR® Imager and then the ratio of p-HER2/total HER2 can be generated by the machine. The percentage of inhibition was got from formula: % inhibition=100×[1−(ratio of sample well−ratio of Min ctrl well)/(ratio of Max−Ratio of Min ctrl well)]. The IC50 values were further calculated as the compounds concentration required for 50% inhibition in best-fit curves using Prism GraphPad 7.0 or Microsoft Xlfit software.

In a further data set the target is T2, wild type EGFR (Homo sapiens, UniProt P00533).
T2 construct: which expresses wild type EGFR protein; endogenous in cells; host or cells: A431
Description: pEGFR cellular activity in A431 cell line. The class given is cell-based. How it is done:
A compound's activity of inhibition for EGFR WT can be evaluated with NCI-H838 (ATCC® CRL-5844™) and A431 cell line (the epidermoid carcinoma cell line A-431), which expresses wild type EGFR protein as the count screening to define the selectivity of the compound.
The compounds' inhibition of target modulation were determined as follows: NCI-H838 cells and A431 cells were sorted in 96 well plates (20000 cells/well) with the DMEM medium containing 1% FBS overnight and then treated with tested compounds at a series of concentrations (3 μM, 0.3 μM, 0.1 μM, 0.03 μM, 0.01 μM, 0.003 μM, 0.001 μM, 0.0001 μM). The plates were incubated for 4 h at 37° C. with 5% CO2 followed by the stimulation of recombinant hEGF (100 ng/ml for 10 Min, RD, Cat #236-EG) and then the EGFR (Y1068) phosphorylation level of cells in each well were measured with MSD Kit (MULTI-SPOT®96 4-Spot HB Prototype EGFR Triplex […]: pEGFR (Tyr1068), pEGFR (Tyr1173), Total EGFR (Cat #N45ZB-1). The assay is a electrochemiluminescent method (MESO SCALE DISCOVERY) for determining both phosphorylated and total EGFR of cells with an MSD SECTOR® Imager and then the ratio of p-EGFR/total EGFR can be generated by the machine. The percentage of inhibition was used the formula: % inhibition=100×[1−(ratio of sample well−ratio of Min ctrl well)/(ratio of Max−Ratio of Min ctrl well)]. […]

Data set [3] can be described thus: Blood brain barrier penetration assay in monkeys. The data set is classed as in vivo. The following applies: CSF, oral; Table 5; monkey. How it is done: In vitro blood, plasma and brain binding assay was carried out with equilibrium dialysis device. Diluted blood (1:1 with DPBS pH7.4), EDTA-anticoagulated plasma, and brain homogenate (1:3 with DPBS pH7.4) were spiked with 5 μM test compound (in triplicate) and dialyzed against equal volume of 150 μL 100 mM PBS buffer (pH7.4) at 37° C. for appropriate equilibration time in a slowly rotated plate. At the end of incubation, a 50 μL aliquot from the receiver side and a 5 μL from the donor chamber were taken. The 5 μL sample was further diluted with 45 μL of blank blood, plasma or brain homogenate. […] After centrifuging at 4000 rpm for 20 min, supernatant was diluted with 0.1% formic acid aqueous solution and analyzed for LC/MS/MS (API 4000, Applied Biosystems, Foster City). Unbound fraction (fu) of test compound were calculated by the ratio of the buffer side response to the brain homogenate/plasma/blood side response, and unbound fraction (fu,bl, fu,pl and fu,br) of test compound in non-diluted blood and tissue were calculated from measured fu in homogenate and diluted blood with the following equation: fu,bl (fu,br)=(1/D)/[(1/fu−1)+1/D)]. […]
Total brain levels, expressed as brain/blood ratio (Kp,brain) were measured by AUC(brain)/AUC(blood or plasma) in rodents after oral administration. […]
Kp,uu brain and Kp,uu CSF was calculated by the following equation: […]

A short description of data set [4]: Clinical plasma and CSF PK in HER2+ MBC patients. The data set is classed as in vivo, human. The following applies: human, CSF, oral; patients with BM; read-out: averaged Kpuu,CSF. How it is done: The plasma concentration of Compound 6 at the dosage of 50 to 200 mg following single dose or multiple doses were tested. […] In patients with BM, averaged Kpuu,CSF was around 1.82 and 0.78 for Compound 6 and its active metabolite Compound 16, respectively.

The target in a further data set is T3, HER2 WT Amplification (Homo sapiens, UniProt P04626).
T3 construct: The cell line expressed phosphorylated HER2 protein and its proliferation depended on the amplified gene; endogenous in cells; host or cells: BT474 (ATCC HTB-20)
Description: HER2 (Y1248) phosphorylation in BT474 cells, MSD kit. The class given is cell-based. Conditions: pHER2 (Y1248), 4 h. How it is done: The plates were incubated for 4 h at 37° C. with 5% CO2 and then the HER2 (Y1248) phosphorylation level of cells in each well were measured with MSD Kit (Phospho-ErbB2 ([…]) Assay Whole Cell Lysate Kit: Cat #[…]-3). The assay is a electrochemiluminescent method (MESO SCALE DISCOVERY) for determining both phosphorylated and total HER2 of cells with an MSD SECTOR® Imager and then the ratio of p-HER2/total HER2 can be generated by the machine.

The next data set addresses T4, EGFR WT (Homo sapiens, UniProt P00533).
T4 construct: which expresses wild type EGFR protein; endogenous in cells; host or cells: NCI-H838 (ATCC CRL-5844)
Description: EGFR (Y1068) phosphorylation in NCI-H838 cells, MSD kit. The class given is cell-based. The following applies: pEGFR (Y1068), 4 h then hEGF stimulation.

T3 sequence (P04626 23-1255): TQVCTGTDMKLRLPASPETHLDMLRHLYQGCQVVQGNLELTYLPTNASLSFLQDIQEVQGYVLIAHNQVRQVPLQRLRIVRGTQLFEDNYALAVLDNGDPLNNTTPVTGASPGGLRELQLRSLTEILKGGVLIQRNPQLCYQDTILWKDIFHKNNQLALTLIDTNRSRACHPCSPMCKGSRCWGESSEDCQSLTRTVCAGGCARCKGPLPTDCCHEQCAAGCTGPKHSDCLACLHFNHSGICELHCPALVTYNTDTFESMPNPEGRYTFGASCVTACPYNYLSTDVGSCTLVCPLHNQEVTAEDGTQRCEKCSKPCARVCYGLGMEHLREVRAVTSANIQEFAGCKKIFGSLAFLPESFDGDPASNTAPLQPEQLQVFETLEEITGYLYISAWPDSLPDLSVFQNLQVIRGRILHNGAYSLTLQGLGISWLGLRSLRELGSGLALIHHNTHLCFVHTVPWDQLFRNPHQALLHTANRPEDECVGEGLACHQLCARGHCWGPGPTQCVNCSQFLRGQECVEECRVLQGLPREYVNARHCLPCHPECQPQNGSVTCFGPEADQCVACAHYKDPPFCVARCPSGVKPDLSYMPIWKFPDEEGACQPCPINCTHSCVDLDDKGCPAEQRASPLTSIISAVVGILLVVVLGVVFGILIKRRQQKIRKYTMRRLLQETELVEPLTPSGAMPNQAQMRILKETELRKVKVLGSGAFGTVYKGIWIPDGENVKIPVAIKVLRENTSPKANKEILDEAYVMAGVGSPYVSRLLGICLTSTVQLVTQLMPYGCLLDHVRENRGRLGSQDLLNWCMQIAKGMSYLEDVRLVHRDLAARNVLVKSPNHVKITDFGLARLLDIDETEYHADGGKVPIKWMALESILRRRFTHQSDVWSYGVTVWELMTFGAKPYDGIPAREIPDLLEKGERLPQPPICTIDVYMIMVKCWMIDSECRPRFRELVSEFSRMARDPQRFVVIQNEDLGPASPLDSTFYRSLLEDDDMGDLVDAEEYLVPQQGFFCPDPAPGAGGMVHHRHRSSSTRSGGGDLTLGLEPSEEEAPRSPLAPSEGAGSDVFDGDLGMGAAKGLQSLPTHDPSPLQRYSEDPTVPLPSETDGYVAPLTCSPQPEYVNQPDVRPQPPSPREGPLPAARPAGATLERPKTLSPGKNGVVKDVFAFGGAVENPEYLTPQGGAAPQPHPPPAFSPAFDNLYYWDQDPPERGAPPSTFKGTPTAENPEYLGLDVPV
T1 sequence (P04626 23-1255): as above
T4 sequence (P00533 25-1210): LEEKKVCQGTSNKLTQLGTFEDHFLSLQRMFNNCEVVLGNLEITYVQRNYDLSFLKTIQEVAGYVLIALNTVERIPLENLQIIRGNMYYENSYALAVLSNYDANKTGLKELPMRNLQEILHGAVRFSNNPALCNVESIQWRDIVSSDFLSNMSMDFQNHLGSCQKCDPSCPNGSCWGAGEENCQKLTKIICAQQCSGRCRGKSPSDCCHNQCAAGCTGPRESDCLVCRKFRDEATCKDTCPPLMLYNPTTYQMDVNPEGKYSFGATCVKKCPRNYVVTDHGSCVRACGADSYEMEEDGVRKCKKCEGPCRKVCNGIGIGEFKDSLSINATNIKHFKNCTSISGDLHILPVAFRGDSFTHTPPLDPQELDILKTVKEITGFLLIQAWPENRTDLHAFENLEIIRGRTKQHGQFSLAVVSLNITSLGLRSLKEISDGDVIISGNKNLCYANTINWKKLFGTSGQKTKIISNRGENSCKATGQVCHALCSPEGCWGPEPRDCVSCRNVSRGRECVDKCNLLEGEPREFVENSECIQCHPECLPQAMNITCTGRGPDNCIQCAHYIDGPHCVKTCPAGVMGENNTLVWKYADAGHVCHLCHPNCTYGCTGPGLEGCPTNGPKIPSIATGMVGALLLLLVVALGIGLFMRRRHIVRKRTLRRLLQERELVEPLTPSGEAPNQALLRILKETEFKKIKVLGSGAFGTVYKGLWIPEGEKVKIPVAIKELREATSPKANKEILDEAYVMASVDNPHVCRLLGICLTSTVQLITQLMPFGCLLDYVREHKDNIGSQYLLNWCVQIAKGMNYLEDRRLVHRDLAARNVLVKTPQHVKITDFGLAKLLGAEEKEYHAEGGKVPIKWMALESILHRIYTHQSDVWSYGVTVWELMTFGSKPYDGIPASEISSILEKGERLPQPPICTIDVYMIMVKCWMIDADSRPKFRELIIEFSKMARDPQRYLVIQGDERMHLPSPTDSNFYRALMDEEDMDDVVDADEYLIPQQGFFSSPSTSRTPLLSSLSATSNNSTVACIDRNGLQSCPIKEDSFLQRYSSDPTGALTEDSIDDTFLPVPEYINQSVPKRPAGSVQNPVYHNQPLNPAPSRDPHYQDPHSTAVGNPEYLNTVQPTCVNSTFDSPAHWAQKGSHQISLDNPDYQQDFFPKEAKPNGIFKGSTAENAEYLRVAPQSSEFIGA
T2 sequence (P00533 25-1210): as above

Consider `Cc1cc(Nc2ncnc3ccc(NC4=NC(C)(C)CO4)cc23)ccc1Oc1ccn2ncnc2c1` [ONT380, reference compound], for which the Kp uu in data set [1] (brain, read-out: Kp,uu,brain) was found to be 0.016. Besides, the “Human Pgp/BCRP transporter substrate” value in data set [2] is on record as “Yes”.

For `CCOc1cc2ncc(C#N)c(Nc3ccc(OCc4ccccn4)c(Cl)c3)c2cc1NC(=O)/C=C/CN(C)C` [Neratinib, reference compound], the “Human Pgp/BCRP transporter substrate” value in data set [2] was “Yes”.

In the case of `COc1cc(O[C@H]2CCNCC2(F)F)c2c(Nc3ccc(Oc4ccn5ncnc5c4)c(C)c3)ncnc2c1` [Compound 16, (S)-N-(4-([1,2,4]triazolo[1,5-a]pyridin-7-yloxy)-3-methylphenyl)-5-((3,3-difluoropiperidin-4-yl)oxy)-7-methoxyquinazolin-4-amine], the figures for the IC50 against pHER2 and against wild type EGFR were 3.5 nM and 740 nM, respectively. Moreover, the Kp uu in data set [1] (CSF, read-out: Kp,uu,CSF) is 0.23; in data set [1] (brain, read-out: Kp,uu,brain), 0.12; in data set [3] it was 0.87; in data set [4], approximately 0.78. In data set [2], the “Human Pgp/BCRP transporter substrate” value is on record as “No”.

`Cc1cc(Nc2ncnc3cccc(O[C@@H]4CCN(C)C[C@@H]4F)c23)ccc1Oc1ccn2ccnc2c1` (single isomer, unassigned) [Compound 11]: the results for the IC50 against HER2 WT Amplification and against EGFR WT were 13.1 nM and more than 3000 nM, respectively.
